In ChEMBL document CHEMBL3244107, “Synthesis and structure-activity relationships of bestatin analogues, inhibitors of aminopeptidase B” (J Med Chem, 1977):
Converted amounts (≈) assume the structure as drawn.

How the values were obtained:
[1] = Retardation factor, Rf value of the compound using BuOH-AcOH-H20 at 4:1:1 ratio by ninhydrin; type: physicochemical
Aminopeptidase B = biological target: T1, Aminopeptidase B (Rattus norvegicus, UniProt O09175); assay: Inhibition of rat liver aminopeptidase B using 0.2 mM […] by colorimetry
T1 sequence (O09175 whole entry): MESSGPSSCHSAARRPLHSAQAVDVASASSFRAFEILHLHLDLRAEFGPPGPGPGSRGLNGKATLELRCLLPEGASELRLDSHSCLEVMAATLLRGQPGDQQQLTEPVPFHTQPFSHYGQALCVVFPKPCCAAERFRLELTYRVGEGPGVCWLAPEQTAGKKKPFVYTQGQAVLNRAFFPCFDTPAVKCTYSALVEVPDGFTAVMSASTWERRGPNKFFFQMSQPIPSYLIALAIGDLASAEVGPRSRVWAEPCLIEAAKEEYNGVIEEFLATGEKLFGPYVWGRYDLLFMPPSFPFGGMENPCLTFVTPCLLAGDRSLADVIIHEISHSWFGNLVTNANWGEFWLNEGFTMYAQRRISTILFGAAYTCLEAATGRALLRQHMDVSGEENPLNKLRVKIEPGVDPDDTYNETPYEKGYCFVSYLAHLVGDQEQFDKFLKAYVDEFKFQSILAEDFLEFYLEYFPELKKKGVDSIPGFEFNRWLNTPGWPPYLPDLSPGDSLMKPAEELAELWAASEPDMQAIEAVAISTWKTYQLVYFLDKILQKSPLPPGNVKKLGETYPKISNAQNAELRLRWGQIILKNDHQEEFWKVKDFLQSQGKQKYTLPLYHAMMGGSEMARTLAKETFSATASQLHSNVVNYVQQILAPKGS

[2] = Inhibition of leucine aminopeptidase B (unknown origin) using 0.2 mM L-leucine-beta-naphthylamide; design: species or system Homo sapiens

| Rf [1] | IC50 (Aminopeptidase B) [µM] | IC50 [2] [µg/mL] | Compound |
| --- | --- | --- | --- |
| 0.38 | – | – | CC(C)C[C@H](NC(=O)[C@H](O)[C@H](N)c1ccccc1)C(=O)O |
| 0.27 | – | – | CC(C)C[C@H](NC(=O)[C@@H](O)[C@@H](C)N)C(=O)O |
| 0.65 | 565 | – | CC(C)CCNC(=O)[C@@H](O)[C@H](N)Cc1ccccc1.Cl |
| 0.41 | – | – | CC(C)C[C@H](NC(=O)[C@@H](O)[C@H](N)c1ccccc1)C(=O)O |
| 0.48 | 357 | – | N[C@H](Cc1ccccc1)[C@H](O)C(=O)NCCCCCC(=O)O |
| 0.58 | – | – | CCCCCCC(NC(=O)[C@@H](O)[C@H](N)Cc1ccccc1)C(=O)O (mixture of isomers) |
| 0.23 | – | – | CC(C)C[C@H](NC(=O)[C@H](O)[C@@H](C)N)C(=O)O |
| 0.48 | 438 | > 250 | CC(C)C[C@@H](NC(=O)[C@H](O)[C@@H](N)Cc1ccccc1)C(=O)O |
| 0.37 | > 811 | > 250 | CC(C)C[C@@H](NC(=O)[C@H](O)[C@H](N)Cc1ccccc1)C(=O)O |
| 0.58 | – | – | CC(C)C[C@H](NC(=O)[C@@H](O)[C@H](N)Cc1ccc([N+](=O)[O-])cc1)C(=O)O |
| 0.37 | – | 0.07 (≈ 0.227 µM) | CC(C)C[C@H](NC(=O)[C@@H](O)[C@@H](N)Cc1ccccc1)C(=O)O |
| 0.49 | – | – | CC(C)C[C@H](NC(=O)[C@@H](O)[C@H](N)CC(C)C)C(=O)O |
| 0.58 | – | – | Cc1ccc(C[C@@H](N)[C@H](O)C(=O)N[C@@H](CC(C)C)C(=O)O)cc1 |
| 0.49 | – | 3.4 (≈ 11 µM) | CC(C)C[C@@H](NC(=O)[C@@H](O)[C@H](N)Cc1ccccc1)C(=O)O |
| 0.49 | > 811 | > 250 | CC(C)C[C@H](NC(=O)[C@H](O)[C@@H](N)Cc1ccccc1)C(=O)O |
| 0.27 | – | – | N[C@H](Cc1ccccc1)[C@H](O)C(=O)N[C@@H](CCC(=O)O)C(=O)O |
| 0.06 | > 773 | – | NCCCC[C@H](NC(=O)[C@@H](O)[C@H](N)Cc1ccccc1)C(=O)O |
| 0.47 | 3.5 | – | CC(C)C[C@H](NC(=O)[C@@H](O)[C@H](N)CC1CCCCC1)C(=O)O |
| 0.52 | 0.162 | 2.7 (≈ 8.76 µM) | CC(C)C[C@@H](NC(=O)[C@@H](O)[C@@H](N)Cc1ccccc1)C(=O)O |
| 0.37 | – | – | CSCC[C@H](NC(=O)[C@@H](O)[C@H](N)Cc1ccccc1)C(=O)O |
| 0.42 | – | – | CC(C)[C@H](NC(=O)[C@@H](O)[C@H](N)Cc1ccccc1)C(=O)O |
| 0.46 | – | – | CC(C)C[C@H](NC(=O)C(O)C(N)Cc1ccccc1Cl)C(=O)O (mixture of isomers) |

| Rf [1] | IC50 (Aminopeptidase B) [µM] | IC50 [2] [µg/mL] | Compound |
| --- | --- | --- | --- |
| 0.48 | 0.13 | – | CC[C@H](C)[C@H](NC(=O)[C@@H](O)[C@H](N)Cc1ccccc1)C(=O)O |
| 0.53 | – | – | Cc1ccc(C[C@@H](N)[C@@H](O)C(=O)N[C@@H](CC(C)C)C(=O)O)cc1 |
| 0.2 | 2.48 | – | N[C@H](Cc1ccccc1)[C@H](O)C(=O)N[C@@H](CO)C(=O)O |
| 0.48 | 0.162 | 0.01 (≈ 0.0324 µM) | CC(C)C[C@H](NC(=O)[C@@H](O)[C@H](N)Cc1ccccc1)C(=O)O [UBENIMEX] |
| 0.47 | – | – | CCCC[C@H](NC(=O)[C@@H](O)[C@H](N)Cc1ccccc1)C(=O)O |
| 0.25 | > 855 | – | N[C@H](Cc1ccccc1)[C@H](O)C(=O)N1CCC[C@H]1C(=O)O |
| 0.34 | 93 | – | CC(C)C[C@H](NC(=O)[C@@H](O)[C@H](N)Cc1ccccc1)C(=O)NCC(=O)O |
| 0.13 | 641 | – | CC(C)C[C@H](NC(=O)[C@@H](O)CN)C(=O)O |
| 0.42 | – | – | CC(C)C[C@H](NC(=O)[C@H](O)[C@H](N)Cc1ccc(Cl)cc1)C(=O)O |
| 0.41 | – | – | CCC[C@H](NC(=O)[C@@H](O)[C@H](N)Cc1ccccc1)C(=O)O |
| 0.43 | – | – | CC(C)C[C@H](NC(=O)[C@H](O)[C@H](N)CC(C)C)C(=O)O |
| 0.35 | 392 | – | N[C@H](Cc1ccccc1)[C@H](O)C(=O)NCCCC(=O)O |
| 0.34 | 141 | – | N[C@H](Cc1ccccc1)[C@H](O)C(=O)NCCC(=O)O |
| 0.13 | > 1150 | – | CC(C)C[C@H](NC(=O)[C@H](O)CN)C(=O)O |
| 0.44 | – | – | N[C@H](Cc1ccccc1)[C@H](O)C(=O)N[C@@H](Cc1ccccc1)C(=O)O |
| 0.17 | – | – | NC(=O)CC[C@H](NC(=O)[C@@H](O)[C@H](N)Cc1ccccc1)C(=O)O |
| 0.52 | 324 | 7.5 (≈ 24.3 µM) | CC(C)C[C@H](NC(=O)[C@H](O)[C@H](N)Cc1ccccc1)C(=O)O |
| 0.52 | – | – | CC(C)C[C@H](NC(=O)[C@@H](O)[C@H](N)Cc1ccc(Cl)cc1)C(=O)O |
| 0.25 | – | – | CC(C)C[C@H](NC(=O)[C@@H](O)[C@H](N)Cc1ccc(N)cc1)C(=O)O |
| 0.26 | – | – | N[C@H](Cc1ccccc1)[C@H](O)C(=O)NCC(=O)O |
| 0.21 | 1.01 | – | C[C@H](NC(=O)[C@@H](O)[C@H](N)Cc1ccccc1)C(=O)O |
